Test results reported in PMC9570109, “Improved Trimethylangelicin Analogs for Cystic Fibrosis: Design, Synthesis and Preliminary Screening” (International Journal of Molecular Sciences, 2022).
Read-outs that look alike come from different tables or passages of the source. Blank lines part the entries; values can stand above or below the compound they belong to.

Tests used:
[1] = biological target: T1, F508del CFTR (Homo sapiens, UniProt P13569, DEL508-508); assay: F508del CFTR functional rescue (corrector) HS-YFP single-cell assay; assay type: cell-based; settings: CFBE41o- YFP-F508del cells; for F508del CFTR rescue (corrector) activity: 48 h incubation, 200 nM
T1 construct: expressed in transfected cells; host or cells: CFBE41o- cells overexpressing F508del CFTR and HS-YFP (YFP-H148Q/I152L), a gift from N. Pedemonte, Gaslini Institute
Method: To verify the possibility that the title compounds may act as correctors in CFBE41o-, overexpressing F508del and the high sensitivity halide-sensing yellow fluorescent protein (HS-YFP) YFP-H148Q/I152L, we examined the effect of 48 h preincubation with vehicle or the TMA analogs or TMA or VX809 (Lumacaftor), as a positive control.
At the time of the assay, the correction of the F508del-CFTR function was evaluated in single-cell analysis by measuring the decrease in YFP fluorescence after the concomitant addition of extracellular iodide and the activating cocktail (20 μM forskolin and 5 μM VX770), in the presence or absence of the 10 μM CFTR inhibitor, CFTRinh-172. […] At least two derivatives show CFTR activity similar to that of the parent TMA.
The effect of TMA analogs on CFTR function was tested in CFBE41o- overexpressing F508del and the high sensitivity halide-sensing yellow fluorescent protein (HS-YFP) YFP-H148Q/I152L (a generous gift from N. Pedemonte, Gaslini Institute, Genova, Italy). YFP CF cells were seeded on round glass coverslips and preincubated for 48 h with vehicle or test compounds or VX809 or TMA. At the time of the assay, cells were washed in Dulbecco’s PBS (in mM: 137 NaCl, 2.7 KCl, 8.1 Na2HPO4, 1.5 KH2PO4, 1 CaCl2, and 0.5 MgCl2, pH 7.4) and subsequently incubated with a stimulation cocktail (20 μM forskolin and 5 μM VX770) in the presence and absence of 10 μM CFTR inhibitor, CFTRInh-172 (Sigma), for 30 min. The coverslips were then transferred on a Nikon TMD inverted microscope through a Nikon Fluor 40 objective. The signal was acquired with a Hamamatsu C2400–97 charge-coupled intensified video camera at a rate of 1 frame/3 s. The fluorescence coming from every single cell was analyzed by custom software (Spin, Vicenza, Italy). The results are presented as transformed data to obtain the percentage signal variation (Fx) relative to the time of addition of the stimulus, according to the equation: Fx = ([Ft − Fo]/Fo) × 100, where Ft and Fo are the fluorescence values at time t and at the time of stimulus addition, respectively. The assay of each sample consists of a continuous 99-s fluorescence reading with 30 s before and 69 s after injection of the iodide-rich Dulbecco’s PBS (in mM: 137 NaI, 2.7 KCl, 8.1 Na2HPO4, 1.5 KH2PO4, 1 CaCl2, and 0.5 MgCl2, pH 7.4) to reach a final iodide concentration of 50 mM [20]. The different sensitivity of HS-YFP toward iodide and chloride allows assays to be performed by measuring the transport of anions through the plasma membrane as changes in cell fluorescence. For this assay, cells expressing HS-YFP are equilibrated in a physiological chloride-rich saline solution (e.g., Dulbecco’s PBS). During fluorescence reading, cells are exposed to a high concentration of iodide. Iodide influx quenches the cell fluorescence with a rate that depends on the permeability of the cell membrane to halides, and therefore, on the activity of the anion channels or transporters.
Figure 4 Evaluation of different TMA analogs as F508del CFTR correctors in CFBE41o- YFP-F508del cells. Correction of F508del-CFTR function was assessed, in a single cell, by measuring the decrease in YFP fluorescence upon addition of extracellular iodide and with the activating cocktail, in the presence or absence of CFTR inhibitor, CFTRInh-172. Iodide influx was tested under control condition (vehicle) or after 48 h incubation with the correctors 200 nM or 1 μM VX809. The YFP fluorescence decay rate was calculated by fitting the fluorescence data with an exponential function of time courses. CFTR activity was obtained by the difference between the fluorescence decay rate of YFP in the presence and absence of CFTRInh-172. Fluorescence coming from every single cell of at least five cells per field was recorded. Each bar corresponds to the mean ± SEM of data points coming from at least three different experiments (5–10 different cells/each experiment). […]

[2] = set-up: method as in PMID 29627723; settings: cited from earlier work
[3] = In vivo oral pharmacokinetics in mice; settings: c57BL/6 male mice
Method: The main pharmacokinetic parameters of 4-PhDMA, pANDMA, and pANDMA mesylate were evaluated in c57BL/6 male mice, using water as dispersing vehicle.
All experimental procedures involving animals were conducted in accordance with the 3R principle to minimize their pain and discomfort. […] For the PK analysis, C57Bl6 male mice (n = 3 per time point) were gavaged with selected compounds (20 mg/kg), suspended in water, or dissolved in SEDDS formulations, after an overnight fast. […] 8.0 software (GraphPad Software Inc., San Diego, CA, USA), when appropriate. If not otherwise stated, the PK data are expressed as mean ± SD. p < 0.05 was considered statistically significant.
The TMA analogs were extracted and analyzed from mouse plasma as already reported. Briefly, 100 µL of plasma were treated with 300 µL of cold acetonitrile spiked with 80 nM of internal standard (IS, 6,4′-dimethylangelicin), and then the samples were centrifuged for 10 min at 12,000× g (Hettich Mikro 120 Benchtop Centrifuge) and 25 °C. Ten microliters of the supernatant were injected into the UHPLC system.
The analytical column was a Kinetex 2.6 μm C18 Polar, 100 A, 100 × 2.1 mm (Phenomenex, Bologna, Italy), thermostated at 30 °C. The mobile phase components A and B were water and methanol, respectively, both containing 10 mM ammonium formate. The eluent flow rate was 0.25 mL/min. […] MS data were analyzed using the Mass Hunter Qualitative Analysis software (Agilent Technologies, Palo Alto, CA, USA).
Chromatographic peaks of the TMA analog were identified and integrated by considering the Extracted Ion Chromatogram (EIC) of the [M+H]^+ species selected with a window of 5 ppm and normalized by the IS. Quantification of TMA analogs was carried out by external calibration of normalized signals using a seven-point calibration curve obtained by spiking blank plasma with each TMA analog in the range of 20–3000 nM.

[4] = system: NF-kB/DNA interactions; set-up: method as in PMID 29627723; settings: cited from earlier work
[5] = system: CFTR in FRT-YFP-G551D cells; set-up: method as in PMID 30022950; settings: cited from earlier work
[6] = biological target: T1, F508del CFTR; set-up: method as in PMID 30022950; settings: nanomolar concentrations; cited from earlier work
[7] = system: salmon testes DNA; assay: Photoadduct formation with DNA under UVA irradiation (TLC analysis); settings: 15 J/cm2 UVA
Method: The total energy that struck the sample was monitored by means of a radiometer (Variocontrol, Waldmann, Villingen-Schwenningen, Germany), equipped with a Variocontrol UV Sensor (Waldmann). The radiant power emitted by the UVA lamp was about […]. The samples were maintained at room temperature during irradiation.
The test compounds were dissolved in ethanol (2 mg/mL) and salmon testes DNA (Sigma-Aldrich) was dissolved in 10 mM NaCl and 1 mM EDTA solution (1.5 × 10^−3 M). Each test solution (250 μL) was added dropwise to the DNA solution (5 mL). The mixture was irradiated with 15 J/cm2 UVA light in a glass dish for 1 h. After irradiation, the DNA was precipitated with 1 M NaCl and two volumes of cold ethanol; the precipitated DNA was collected, washed with 80% ethanol, dried, and then dissolved in water. To obtain hydrolysis, the final solution was acidified with 1 M HCl, heated at 100 °C for 1 h, neutralized with NaOH and extracted three times with chloroform. Then, all of the organic layers were collected, dried under a high vacuum, and dissolved in ethanol. The hydrolyzed mixtures were separated by thin layer chromatography (TLC; F254 plates, 0.25 mm, Merck, Darmstadt, Germany) eluting with EtOAc/EtOH (9:1). The plates were analyzed with a Mineral Light Lamp VL-4LC VILBERT-LOURMAT (Vilber, Marne-la-Vallée, France).

[8] = system: HepG2 cells; assay: Cytotoxicity MTT assay on HepG2 cells; settings: HepG2, 24 h, highest concentration tested (50 μM)
Method: The potential toxicity of TMA analogs on hepatic tissue was assessed by evaluating the viability of HepG2 cells (ATCC, HB-8065) using the MTT assay, as previously reported [22]. Cells were maintained in DMEM complete medium (10% FBS, 1% l-glutamine and 1% PEN-STREP) and seeded in a 96-well plate (5 × 10^4 cells/mL). They were treated for 24 h with TMA analogs (concentration range from 3.125 μM to 50 μM). At the end of the treatment, cells were washed and an MTT solution (0.5 mg/mL in complete medium) was added to each well and incubated for 4 h at 37 °C. The solution was discarded, and the produced blue formazan crystals were dissolved with acidified isopropanol (2% HCl). Absorbance was measured at 570 nm using a multiplate reader (Victor Nivo, Perkin Elmer). The percentage of viable cells was calculated considering untreated cells as control.
The data shown in this figure are the results of three independent experiments, each
performed in quadruplicate.

[9] = mouse, plasma, po, 20 mg/kg gavage, in water

T1 sequence (P13569 with tags, fused parts or gaps DEL508-508): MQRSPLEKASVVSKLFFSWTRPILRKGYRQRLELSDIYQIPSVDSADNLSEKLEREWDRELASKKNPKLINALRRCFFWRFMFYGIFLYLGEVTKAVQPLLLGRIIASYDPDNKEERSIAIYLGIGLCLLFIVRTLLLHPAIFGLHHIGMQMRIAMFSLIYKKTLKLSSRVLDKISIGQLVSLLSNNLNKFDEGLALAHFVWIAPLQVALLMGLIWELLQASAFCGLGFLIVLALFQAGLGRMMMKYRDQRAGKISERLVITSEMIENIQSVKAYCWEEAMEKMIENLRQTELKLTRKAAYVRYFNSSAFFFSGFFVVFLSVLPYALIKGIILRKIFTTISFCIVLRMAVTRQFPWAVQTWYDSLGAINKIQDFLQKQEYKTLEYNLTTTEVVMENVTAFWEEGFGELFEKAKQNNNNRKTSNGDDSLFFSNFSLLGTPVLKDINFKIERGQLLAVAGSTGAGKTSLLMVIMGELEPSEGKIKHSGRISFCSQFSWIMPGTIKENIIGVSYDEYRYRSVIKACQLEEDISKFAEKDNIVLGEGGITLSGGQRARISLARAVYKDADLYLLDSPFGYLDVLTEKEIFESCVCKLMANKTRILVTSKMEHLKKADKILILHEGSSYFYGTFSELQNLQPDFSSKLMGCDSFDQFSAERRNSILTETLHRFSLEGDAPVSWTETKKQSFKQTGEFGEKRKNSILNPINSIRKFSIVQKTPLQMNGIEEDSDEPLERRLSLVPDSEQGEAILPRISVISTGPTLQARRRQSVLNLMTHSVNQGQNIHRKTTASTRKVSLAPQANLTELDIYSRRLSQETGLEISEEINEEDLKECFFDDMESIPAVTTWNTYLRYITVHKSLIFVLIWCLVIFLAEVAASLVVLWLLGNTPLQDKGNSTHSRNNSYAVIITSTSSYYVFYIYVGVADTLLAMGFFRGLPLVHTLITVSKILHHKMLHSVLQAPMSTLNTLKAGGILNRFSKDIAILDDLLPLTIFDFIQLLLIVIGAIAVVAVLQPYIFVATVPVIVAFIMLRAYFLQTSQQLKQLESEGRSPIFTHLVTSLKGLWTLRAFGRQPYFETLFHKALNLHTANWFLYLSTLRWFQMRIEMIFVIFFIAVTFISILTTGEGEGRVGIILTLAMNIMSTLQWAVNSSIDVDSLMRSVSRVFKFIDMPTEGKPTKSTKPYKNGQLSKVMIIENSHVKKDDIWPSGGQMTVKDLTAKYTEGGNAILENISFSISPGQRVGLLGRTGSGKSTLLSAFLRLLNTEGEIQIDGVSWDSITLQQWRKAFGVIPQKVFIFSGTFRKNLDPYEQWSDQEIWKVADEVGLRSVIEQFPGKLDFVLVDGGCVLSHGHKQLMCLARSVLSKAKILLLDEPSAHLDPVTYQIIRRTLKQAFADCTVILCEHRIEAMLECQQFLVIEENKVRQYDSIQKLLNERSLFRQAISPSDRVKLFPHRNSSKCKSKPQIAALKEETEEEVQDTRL

SMILES: CCc1cc2c(C(C)C)cc(=O)oc2c2c(C)coc12 [IPEMA, 4-isopropyl-6-ethyl-4′-methylangelicin]
mutagenicity and DNA damaging properties [2]: lacking mutagenicity and DNA damaging properties
CL/F ([3]; 20 mg/kg gavage, in water): 0.0633 ± 0.005 mL/h/g
oral bioavailability ([3]; water as vehicle): very low
Cmax [3, 9]: 120 ± 55.3 nM
half-life [3, 9]: 9.01 ± 1.34 h
AUC 0-inf ([3]; mouse, plasma, po, 20 mg/kg gavage, in water, read-out: AUC 0-inf): 0.395 ± 0.0987 µM·h
Tmax ([3]; mouse, plasma, po, 20 mg/kg gavage, in water, read-out: Tmax): 1 h
inhibitory activity on NF-kB/DNA interactions [4]: TMA-like inhibitory activity
potentiation activity of CFTR [5]: maintained the potentiation activity
rescue of F508del CFTR-dependent chloride efflux [6]: significantly rescued

SMILES: Cc1cc(=O)oc2c1cc(C)c1occ(C)c12 [TMA, 4,6,4′-trimethylangelicin, reference compound]
photoadduct formation with DNA upon UVA irradiation [7]: showed photoadducts

SMILES: Cc1cc(=O)oc2c1cc(-c1cccs1)c1occ(C)c12 [ThiDMA]
F508del CFTR rescue (corrector) activity [1]: inactive

SMILES: CS(=O)(=O)O.Cc1cc(=O)oc2c1cc(-c1ccc(N)cc1)c1occ(C)c12 [pANDMA mesylate]
AUC 0-inf ([3]; 20 mg/kg gavage, in water): 9.4026 ± 0.7422 µM·h
CL/F ([3]; 20 mg/kg gavage, in water): 0.0091 ± 0.0002 mL/h/g
Cmax ([3]; 20 mg/kg gavage, in water): 3870 ± 1070 nM
Tmax ([3]; 20 mg/kg gavage, in water): 0.375 ± 0.177 h
t1/2 ([3]; 20 mg/kg gavage, in water): 1.87 ± 0.43 h
bioavailability relative to pANDMA ([3]; water as vehicle): nearly four-times more bioavailable
cell viability [8]: greater than 75%
reduction in YFP fluorescence induced by iodide influx compared to vehicle ([1]; 48 h treatment, representative time courses): greater reduction in YFP fluorescence

Other lines, results leading:

F508del CFTR rescue (corrector) activity [1]: inactive
SMILES: CCc1cc2c(-c3ccccc3)cc(=O)oc2c2c(C)coc12 [4-PhEMA]

F508del CFTR rescue (corrector) activity [1]: inactive
SMILES: Cc1coc2c(-c3ccccc3)cc3c(C4CC4)cc(=O)oc3c12 [CPPhMA]

F508del CFTR rescue (corrector) activity [1]: inactive
SMILES: Cc1coc2c(-c3ccccc3)cc3c(C(C)C)cc(=O)oc3c12 [IPPhMA]

F508del CFTR rescue (corrector) activity [1]: inactive
SMILES: Cc1cc(=O)oc2c1cc(-c1ccncc1)c1occ(C)c12 [PyDMA]

F508del CFTR rescue (corrector) activity [1]: inactive
SMILES: Cc1cc(=O)oc2c1cc(-c1cccc(N)c1)c1occ(C)c12 [mANDMA]
